Reference: PubChem BioAssay AID2060912 (Molecular Pharmacology Branch, DTP, NCI, 2025)

Tested on: HUVEC/MSC spheroids viability
Experiment: Human HUVEC/MSC cell line growth inhibition [KRAS2];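 as to viability, T/C: percent of DMSO vehicle control luminescence so 100% = untreated viability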
Settings: for IC50: curve of first compound; for viability, T/C: stronger effect = lower value; active = viability on the fitted dose curve at most 10% of control; inactive = the rest
Description: Multicellular complex tumor spheroid response to RAS pathway inhibitors in combination with a targeted agents in patient-derived cell lines with oncogenic KRAS variants from multiple cancer types
A high-throughput screen of multi-cell type tumor spheroids was designed to identify active combinations of targeted small molecules and KRAS pathway inhibitors. Complex spheroids include a stromal component modeled by human endothelial cells (HUVEC) and fibroblasts modeled by human mesenchymal stem cells (MSCs). The concentration ranges selected for each drug and investigational agent were based upon clinically achievable concentrations if the clinical Cmax of the agent was known. * [This particular assayID is a followup dataset requested by reviewers of the manuscript. It is a test of the HUVEC and MSC without the tumor cells, and was conducted using different drug plates and a different plate layout.]
Compounds. The drugs and investigational agents: BI-3406 (NSC825286), BAY-293 (NSC824723), batoprotafib (TNO155; NSC825523), sotorasib (AMG 510; NSC818433), MRTX1257 (NSC819558), elimusertib (BAY 1895344; NSC800525), molibresib (GSK525762; NSC774829), temuterkib (LY3214996; NSC803410), venetoclax (NSC766270), alisertib (NSC759677), olaparib (NSC753686), talazoparib (NSC767125), erdafitinib (NSC781556), ipatasertib (NSC767898), cabozantinib (NSC761068), nintedanib (NSC756659), abemaciclib (NSC768073), docetaxel (NSC628503), trametinib (NSC758246), and sapanisertib (NSC764658) were obtained from the National Cancer Institute (NCI) Developmental Therapeutics Program Chemical Repository. The FDA-approved anticancer drug set is available from the Developmental Therapeutics Program. […] The stock solutions were prepared in dimethyl sulfoxide (DMSO, Sigma-Aldrich, St. Louis, MO, cat. D2650) at 800-fold the tested concentration and stored at -70 degrees C prior to their use. All drugs and investigational agents were tested over a range starting from a high concentration at or near the clinical Cmax and decreasing in half-log increments. If the clinical Cmax for an agent had not been determined, the highest concentration tested was 10 microM.
Cell Culture. All cells were maintained in an incubator at 37 degrees C and 5% CO2 with 95% humidity. The PDC lines were cultured according to standard operating procedures established by the NCI PDMR (https://pdmr.cancer.gov/sops/default.htm). Briefly, all PDCs were thawed and cultured in Matrigel-coated flasks prepared with a working solution of 1X Ham's F-12 nutrient mix, without supplementation (Invitrogen, Waltham, MA, cat. 11765054), 100 U/mL penicillin-streptomycin (Invitrogen, cat. 15140122), and 2.5% Matrigel (Corning Inc., Corning, NY, cat. 354248) for the first three passages. All PDCs were cultured in complete DMEM/F-12 media containing advanced DMEM/F-12 (Invitrogen, cat. 12634028), 4.9% defined fetal bovine serum, heat inactivated (HyClone Laboratories Inc., Logan, UT, cat. SH30070.03HI), 389 ng/mL hydrocortisone (Sigma-Aldrich, cat. H4001), 9.7 ng/mL human EGF recombinant protein (Invitrogen, cat. PHG0313), 23.4 microg/mL adenine (Sigma-Aldrich, cat. A2786), 97.3 U/mL penicillin-streptomycin (Invitrogen, cat. 15140122), 1.9 mM L-glutamine (Invitrogen, cat. 25030081), and 9.7 microM Y-27632 dihydrochloride (Tocris Bioscience, Bristol, United Kingdom, cat. 1254). The PDCs were cultured in complete DMEM/F12 media without 9.7 microM Y-27632 dihydrochloride for at least two passages prior to the screen. The established cell line HOP-62 was cultured in RPMI 1640 medium, HEPES (Invitrogen, cat. 22400105) with 10% defined fetal bovine serum (HyClone Laboratories Inc., cat. SH30070.03) and 2 mM L-glutamine (Invitrogen, cat. 25030081). The pooled donor HUVEC were cultured in endothelial cell growth medium 2 (PromoCell, Heidelberg, Germany, cat. C-22011) and the hMSC were cultured in mesenchymal stem cell growth medium 2 (PromoCell, cat. C-28009). […]

CC(=O)Nc1cccc(-n2c(=O)n(C3CC3)c(=O)c3c(Nc4ccc(I)cc4F)n(C)c(=O)c(C)c32)c1 + COc1cc2nc(C)nc(NC(C)c3cc(N)cc(C(F)(F)F)c3)c2cc1OC1CCOC1
inactive: viability, T/C (second compound 0.0316 µM, first compound 94.9 pM) 126% | viability, T/C (second compound 0.0316 µM, first compound 0.0003 µM) 124% | viability, T/C (second compound 0.0316 µM, first compound 0.000949 µM) 105% | viability, T/C (second compound 0.0316 µM, first compound 0.003 µM) 92.6% | viability, T/C (second compound 0.0316 µM, first compound 0.00949 µM) 78.8% | viability, T/C (second compound 0.0316 µM, first compound 0.03 µM) 18.3% | viability, T/C (second compound 0.1 µM, first compound 94.9 pM) 105% | viability, T/C (second compound 0.1 µM, first compound 0.0003 µM) 129% | viability, T/C (second compound 0.1 µM, first compound 0.000949 µM) 129% | viability, T/C (second compound 0.1 µM, first compound 0.003 µM) 74.2% | viability, T/C (second compound 0.1 µM, first compound 0.00949 µM) 80.2% | viability, T/C (second compound 0.1 µM, first compound 0.03 µM) 18.6% | viability, T/C (second compound 0.316 µM, first compound 94.9 pM) 103% | viability, T/C (second compound 0.316 µM, first compound 0.0003 µM) 134% | viability, T/C (second compound 0.316 µM, first compound 0.000949 µM) 115% | viability, T/C (second compound 0.316 µM, first compound 0.003 µM) 82.6% | viability, T/C (second compound 0.316 µM, first compound 0.00949 µM) 68.8% | viability, T/C (second compound 0.316 µM, first compound 0.03 µM) 14.6% | viability, T/C (second compound 1 µM, first compound 94.9 pM) 108% | viability, T/C (second compound 1 µM, first compound 0.0003 µM) 125% | viability, T/C (second compound 1 µM, first compound 0.000949 µM) 91.4% | viability, T/C (second compound 1 µM, first compound 0.003 µM) 76.7% | viability, T/C (second compound 1 µM, first compound 0.00949 µM) 73.2% | viability, T/C (second compound 1 µM, first compound 0.03 µM) 15.2% | viability, T/C (second compound 3.16 µM, first compound 94.9 pM) 91% | viability, T/C (second compound 3.16 µM, first compound 0.0003 µM) 104% | viability, T/C (second compound 3.16 µM, first compound 0.000949 µM) 113% | viability, T/C (second compound 3.16 µM, first compound 0.003 µM) 68.8% | viability, T/C (second compound 3.16 µM, first compound 0.00949 µM) 76.4% | viability, T/C (second compound 3.16 µM, first compound 0.03 µM) 15.9% | viability, T/C (second compound 10 µM, first compound 94.9 pM) 83% | viability, T/C (second compound 10 µM, first compound 0.0003 µM) 99% | viability, T/C (second compound 10 µM, first compound 0.000949 µM) 97% | viability, T/C (second compound 10 µM, first compound 0.003 µM) 59.6% | viability, T/C (second compound 10 µM, first compound 0.00949 µM) 60.4%
15.3 nM: IC50 (second compound 0.0316 µM)
13.1 nM: IC50 (second compound 0.316 µM)
14.4 nM: IC50 (second compound 3.16 µM)
10.4 nM: IC50 (second compound 10 µM)
15.2 nM: IC50 (second compound 0.1 µM)
active: viability, T/C (second compound 10 µM, first compound 0.03 µM) 5.88%
13 nM: IC50 (second compound 1 µM)
